Assay results published in patent publication US20260217701A1, “SELECTIVE BET INHIBITORS AND USES THEREOF” (Tay Therapeutics Limited, priority 2022, published 2026).

Tested on: lupus
Experiment: SLE (lupus) model: kidney histology lesion scores
Assay type: in vivo, MRL/MpJ-Faslpr mice
Conditions: for Total Glomerular Lesion (mean score) / Total Glomerular Lesion (table title: Mean Total Kidney Lesion Scores) / Total Tubular and Interstitial Lesion (mean score) / Mean total glomerular lesion score / Mean total kidney lesion score / Mean total tubular and interstitial lesion score: Week 19
Experimental: Female MRL/MpJ-Faslpr mice (The Jackson Laboratory) were used to assess the efficacy of Compound A in treating lupus. Starting when animals were 10 weeks of age, protein concentration in urine was measured using urine dipsticks.
At the start of the study, each group in the study had two animals that were 9 weeks old, and all others were 10 weeks old. Dosing of all animals with the test compounds began when the older animals were 11 weeks old. […] […] Dosing was at a consistent time each dosing day throughout the study.
Compound A may be formulated as illustrated in Experimental Method A (see Table 2E.). […] A stock solution of Compound A in DMSO (stock solution concentration of Compound A of 40 mg/mL) was prepared and aliquots for weekly preparations were frozen at −20° C. On each preparation day, a stock solution aliquot was thawed and diluted with other vehicle components to the desired concentration. Formulated Compound A and vehicle were at room temperature for dosing.
The study began when the older animals were 11 weeks old, and concluded when the older animals were 19 weeks old. Body weight was recorded once a week, with the exception of two weight measurements taken the first week of the study (when the older animals were 11 weeks old). Proteinuria was measured in the urine of animals with urine dipsticks once a week, starting when the older animals were 10 weeks old. […] Blood samples were taken retro-orbitally at the start of the study to establish a baseline (15 animals, 3 per group), and when the older animals were 16 weeks (all animals) and when animals were 19 weeks (all animals) at the conclusion of the study. Blood urea nitrogen (BUN) was measured in all animals at study termination in blood samples. After blood collection, animals were euthanized, perfused with PBS, and the left kidneys were collected and weighed and fixed in 10% buffered formalin. Left kidneys were then processed to a formalin-fixed, paraffin-embedded (FFPE) block, and histology was analyzed in Periodic Acid-Schiff-stained sections (1 section per slide), using the criteria described in Alperovich et al., Lupus, 16:18-24 (2007). Right kidneys were weighed and snap-frozen at −80° C. Spleens were also collected and weighed. SLE in animals treated with a BET inhibitor and vehicle.

**Q.** For Cn1cc(-c2ccccc2)c(-c2cn(C)c(=O)c3[nH]c(-c4cnn(C(F)(F)F)c4)cc23)cc1=O [Compound A, 6-methyl-4-(1-methyl-2-oxo-5-phenyl-1,2-dihydropyridin-4-yl)-2-(1-(trifluoromethyl)-1H-pyrazol-4-yl)-1,6-dihydro-7H-pyrrolo[2,3-c]pyridin-7-one], which “Total Glomerular Lesion (mean score)” value (Compound A 1 mg/kg PO QD) is on record?
**A.** 3.9

**Q.** What about the “Total Glomerular Lesion (table title: Mean Total Kidney Lesion Scores)” value (Compound A 1 mg/kg PO QD) of the same compound?
**A.** 5.1

**Q.** And the “Total Tubular and Interstitial Lesion (mean score)” value (Compound A 1 mg/kg PO QD)?
**A.** 1.2

**Q.** What about the “Total Glomerular Lesion (mean score)” value (Compound A 3 mg/kg PO QD) of the same compound?
**A.** 2.7

**Q.** And the “Total Glomerular Lesion (table title: Mean Total Kidney Lesion Scores)” value (Compound A 3 mg/kg PO QD)?
**A.** 3.8

**Q.** What about the “Total Tubular and Interstitial Lesion (mean score)” value (Compound A 3 mg/kg PO QD) of the same compound?
**A.** 1.1

**Q.** And the “Total Glomerular Lesion (mean score)” value (Compound A 10 mg/kg PO QD)?
**A.** 1.1

**Q.** And the “Total Glomerular Lesion (table title: Mean Total Kidney Lesion Scores)” value (Compound A 10 mg/kg PO QD)?
**A.** 1.6

**Q.** And the “Total Tubular and Interstitial Lesion (mean score)” value (Compound A 10 mg/kg PO QD)?
**A.** 0.5

**Q.** And the “Mean total glomerular lesion score” value (1 mg/kg)?
**A.** about 3.9

**Q.** And the “Mean total kidney lesion score” value (1 mg/kg)?
**A.** about 5.1

**Q.** And the “Mean total tubular and interstitial lesion score” value (1 mg/kg)?
**A.** about 1.2

**Q.** And the “Mean total glomerular lesion score” value (3 mg/kg)?
**A.** about 2.7

**Q.** And the “Mean total kidney lesion score” value (3 mg/kg)?
**A.** about 3.8

**Q.** What about the “Mean total tubular and interstitial lesion score” value (3 mg/kg) of the same compound?
**A.** about 1.1

**Q.** And the “Mean total glomerular lesion score” value (10 mg/kg)?
**A.** about 1.1

**Q.** What about the “Mean total kidney lesion score” value (10 mg/kg) of the same compound?
**A.** about 1.6

**Q.** What about the “Mean total tubular and interstitial lesion score” value (10 mg/kg) of the same compound?
**A.** about 0.5

**Q.** And the “Kidney histology images (FIGS. 30H-30L), disease suppression” value (increasing dosage)?
**A.** dose dependent improvement in disease suppression
